The subject of this assay is Plasmopara viticola. Briefly: activity against peronospora of grapevines caused by Plasmopara viticola (protective spray treatment of potted vines). The format is in vivo, Plasmopara viticola on grapevines. Conditions: individual active compound, Abbot's formula, untreated control 92% infection. As to the method:
The active compounds, separately or jointly, were prepared as a stock solution comprising 0.25% by weight of active compound in acetone or DMSO. 1% by weight of the emulsifier Uniperol® EL (wetting agent having emulsifying and dispersant action based on ethoxylated alkylphenols) was added to this solution, and the mixture was diluted with water to the desired concentration.
Use example—activity against peronospora of gravevines caused by Plasmopara viticola
Leaves of potted vines were sprayed to runoff point with an aqueous suspension having the concentration of active compound stated below. The next day, the undersides of the leaves were inoculated with an aqueous sproangal suspension of Plasmopara viticola. The grapevines were then initially placed in a water-vapor-saturated chamber at 24° C. for 48 hours and then in a greenhouse at 20-30° C. for 5 days. After this period of time, the plants were again placed in a humid chamber for 16 hours to promote sporangiophore eruption. The extent of the development of the disease on the undersides of the leaves was then determined visually.
The visually determined percentages of infected leaf areas were converted into efficacies in % of the untreated control:
The efficacy (E) is calculated as follows using Abbot's formula: E=(1−α/β)·100 • α corresponds to the fungicidal infection of the treated plants in % and • β corresponds to the fungicidal infection of the untreated (control) plants in %
An efficacy of 0 means that the infection level of the treated plants corresponds to that of the untreated control plants; an efficacy of 100 means that the treated plants were not infected.
The expected efficacies of mixtures of active compounds were determined using Colby's formula (Colby, S. R. “Calculating synergistic and antagonistic responses of herbicide combinations”, Weeds, 15, 20-22, 1967) and compared with the observed efficacies.
Colby's formula: E=x+y−x·y/100 • E expected efficacy, expressed in % of the untreated control, when using the mixture of the active compounds A and B at the concentrations a and b • x efficacy, expressed in % of the untreated control, when using the active compound A at the concentration a
y efficacy, expressed in % of the untreated control, when using the active compound B at the concentration b

Consider “2,6-dinitro-4-octylphenyl crotonate und 2,4-dinitro-6-octylphenyl crotonate [II]”, for which the “Efficacy in % of the untreated control” value by setting is: (4 ppm in the spray liquor) 2%; (16 ppm in the spray liquor) 2%; (63 ppm in the spray liquor) 2%.

In the case of `CC1CCN(c2c(-c3c(F)cc(F)cc3F)c(Cl)nc3ncnn23)CC1` [I, 5-chloro-7-(4-methylpiperidin-1-yl)-6-(2,4,6-trifluorophenyl)-[1,2,4]triazolo[1,5-a]pyrimidine], the “Efficacy in % of the untreated control” value (16 ppm in the spray liquor) is 56%.
